The source of these data is patent US6495491B1, “Substituted cyanophenyl uracils” (Bayer Aktiengesellschaft, priority 1995, dated 2002).

What all share (assay type): in vivo
The test system of assay [1] is Abutilon. Description: Pre-emergence test, Abutilon. Conditions: application rates between 8 and 125 g/ha, after three weeks. The protocol: (§1) Solvent: 5 parts by weight of acetone
(§2) Emulsifier: 1 part by weight of alkylaryl polyglycol ether
(§3) To produce a suitable preparation of active compound, 1 part by weight of active compound is mixed with the stated amount of solvent, the stated amount of emulsifier is added and the concentrate is diluted with water to the desired concentration.
(§4) Seeds of the test plants are sown in normal soil. After 24 hours, the soil is watered or sprayed with the preparation of the active compound. It is advantageous to keep the amount of water per unit area constant. The concentration of the active compound in the preparation is immaterial, only the amount of active compound applied per unit area matters.
(§5) After three weeks, the degree of damage to the plants is rated in % damage by comparison with the development of the untreated control.
(§6) 0%=no effect (like untreated control)

Assay [2] concerns Chenopodium. The assay is described as follows: Pre-emergence test, Chenopodium. Conditions: application rates between 8 and 125 g/ha, after three weeks. As to the method: as §1, §2, §3, §4, §5, §6
The test system of assay [3] is Matricaria. The assay is described as follows: Pre-emergence test, Matricaria. Conditions: application rates between 8 and 125 g/ha, after three weeks. As to the method:
as §1, §2, §3, §4, §5, §6

Another assay has as its system wheat. The assay is described as follows: Pre-emergence test, crop tolerance wheat. Conditions: application rates between 8 and 125 g/ha, after three weeks. The protocol:
as §1, §2, §3, §4, §5, §6

In assay [4] the test system is Abutilon. The assay is described as follows: Post-emergence test, Abutilon. Conditions: application rates between 30 and 500 g/ha, after three weeks. The protocol: as §1, §2, §3
(§7) Test plants which have a height of 5-15 cm are sprayed with the preparation of the active compound in such a way as to apply the particular amounts of active compound desired per unit area. The concentration of the spray liquor is chosen so that the particular desired amounts of active compound are applied in 2000 l of water/ha.
as §5, §6

The subject of assay [5] is Chenopodium. Description: Post-emergence test, Chenopodium. Conditions: application rates between 30 and 500 g/ha, after three weeks. As to the method:
as §1, §2, §3, §7, §5, §6

Assay [6] concerns Matricaria. The assay is described as follows: Post-emergence test, Matricaria. Conditions: application rates between 30 and 500 g/ha, after three weeks. The protocol:
as §1, §2, §3, §7, §5, §6

With `COc1cc(-n2c(=O)cc(C(F)(F)F)n(C)c2=O)c(F)cc1C#N` [Example 2, 1-(4-cyano-2-fluoro-5-methoxy-phenyl)-3,6-dihydro-2,6-dioxo-3-methyl-4-trifluoromethyl-1(2H)-pyrimidine], the “degree of damage to the plants, % damage” value is 100% with Abutilon [1]; 100 %/o with Chenopodium [2]; 100 %/o with Matricaria [3]; 100% with Abutilon [4]; 100% in the assay with Chenopodium [5]; 100% in the assay on Matricaria [6]. Besides, the “degree of damage to the plants, % damage (tolerance by crops)” value in the assay with wheat stood at 0%.
